Reference: PMC9714824, “Hexapeptides from mammalian inhibitory hormone hunt activate and inactivate nematode reproduction” (PLOS ONE, 2022)

Columns and labels:
PNT2 cells = assay: MTS colorimetric viable cell assay, PNT2; assay type: cell-based, human; conditions: 30 μM, 27h, 492 nm, triplicate
Method in brief: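 Cells seeded at 8,000/well, given peptides (14mer to 6mer) at 30 μM final at the outset, triplicate, buffer controls; viable cells by MTS absorbance at 492 nm after 27 h growth. Data as OD mean ± SEM, two-tailed t-test; a 14mer time course on PC3 read at 24 and 48 h.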

LNCaP cells = assay: MTS viable cell assay, LNCaP (Epistem); assay type: cell-based, human; conditions: over 72h, single dose level
Experimental: Further assays on human prostate cancer cells were conducted at a contract research organisation (Epistem, Manchester, UK). LNCaP or DU145 cells seeded at 3,000 cells/well across a 96-well plate were cultured in RPMI (phenol red free), 10% FCS, 1% sodium pyruvate, Pen/strep and L-glutamine for 24h before exposure to peptides, at a single dose level in the case of LNCaPs or multiple dose levels in the case of DU145s. (For dose levels see Results.) Controls received vehicle (1% PBS). For the DU145s peptide administration was repeated after 24h. 72h after the first administration (DU145s) or only administration (LNCaP) total viable cell numbers were measured colorimetrically (MTS) using a CellTiter 96 AQueous One Solution Cell Proliferation Assay (Promega, Southampton, UK), following manufacturer’s instructions. Briefly, the media on the plates was replaced with the CellTiter reagent diluted 1:5 in DMEM. The plates were returned to the incubator for 3 hours before reading absorbance at 492 nm on a FLUORstar OPTIMA (BMG Labtech). CellTiter data are the absorbance minus background values (CellTiter plus DMEM), expressed as (OD mean +/− SEM). Statistical analysis was by ANOVA, Dunnett’s multiple comparisons test.

DU145 cells = assay: MTS viable cell assay, DU145 (Epistem); assay type: cell-based, human; conditions: DU145; 150 μM (highest concentration); 72h
Method in brief: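 DU145 or LNCaP cells, 3,000/well in RPMI with 10% FCS, grown 24 h, then peptide added: multiple dose levels, repeated after 24 h, for DU145; single dose level, once, for LNCaP; vehicle 1% PBS. MTS absorbance 492 nm at 72 h after first dose, background-subtracted OD mean±SEM; ANOVA with Dunnett's test.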

[1] = system: MCF 7 human breast cancer cells; conditions: in words; EPL120 over 72h, dose range 0.04 nM– 4 μM; cited from earlier work
[2] = system: compensatory renal growth; conditions: in words; cited from earlier work
Experimental: The 14-residue N-terminal Edman sequence EPL001 was determined in the context of a polypeptide candidate of m/z ~7,500 (‘Candidate 7500’) in MALDI-TOF mass spectrometry (MS) and a corresponding band in SDS polyacrylamide gel electrophoresis, implying a chain of ~70 aa for the native molecule. In spite of comprising only 20% of Candidate 7500, EPL001 surpris ...

hMSCs = system: hMSCs; set-up: method as in earlier work; conditions: EPL001 0.15µM or EPL140 15µM, three days; cited from earlier work
[3] = system: hDPSC (Human Dental Pulp Derived Mesenchymal-Like Stem/Progenitor Cells); set-up: method as in earlier work; conditions: EPL001 0.15µM or EPL140 15µM, three days; cited from earlier work

## MKPLTGKVKEFNNI [EPL001, 14mer master test peptide …; ovine provenance]
PNT2 cells
  Difference in percentage terms between control and test OD means: +3.1%
LNCaP cells
  Reduction in test mean OD versus the vehicle control mean: -17.0%
DU145 cells
  Test mean OD vs control mean: −16.5%
[1]
  Inhibition of IGF-1 stimulated growth in MCF-7 cell numbers: inhibits the proliferation
[2]
  Effect on rat compensatory renal growth: anti-organotrophic
hMSCs
  Bmal1 expression: ↑↑
  OCN expression: ↓
  PPARγ expression: ↓
  Per2 expression: ↓
  Sox9 expression: ↓
[3]
  Bmal1 expression: ↑
  OCN expression: ↓↓
  PPARγ expression: ↓↓
  Per2 expression: ↑
  Rev-ErbA expression: ↓
  Sox9 expression: (↓)
